For data set [1], the system named is KG-1 human leukemia cells. Kind of data set: Anti-proliferative activity on KG-1 (ATPLite cell viability). Type of data set: cell-based. Conditions: KG-1 cells; for inhibition at 0.1 µM: compound at 0.1 μM, read-out: % proliferation inhibition 0.1 μM; for inhibition at 1 µM: compound at 1 μM, read-out: % proliferation inhibition 1 μM; for inhibition at 5 µM: compound at 5 μM, read-out: % proliferation inhibition 5 μM; for inhibition at 10 µM: compound at 10 μM, read-out: % proliferation inhibition 10 μM. As for the experimental part: Anti-Proliferative Activity. (on KG-1)
KG-1 human leukemia cells were obtained from the ATCC (USA) and cultivated in RPMI 1640 medium (with HEPES and Glutamine, BE12-115F, Lonza, France) supplemented with, respectively, 20% and 15% foetal calf serum (Lonza, France), at 37° C. and under 5% CO2. To measure the anti-proliferative properties of tested molecules, 2×10^4 cells are seeded at day 0 in a 96 wells plate. The compounds to be tested, stored at −20° C. as 10^−2 M stock solution in 100% DMSO, are freshly diluted on day 1 in RPMI 1640 medium, before adding a dose range of 3.2 nM to 10 μM to the cells. This treatment is repeated on day 2 and 3, and on day 4 cell viability is assessed using the ATPLite™ kit from Perkin (ATPlite™ 1 Step Luminescence Assay System, ref 3016739), following the provider instructions. The raw data are analyzed with GraphPad Prism software (v4.03) to generate EC50 values corresponding to the compound concentrations giving 50% reduction in cell viability. The values presented are the mean results of at least two independent experiments. […]
At the end of the experiment, cell viability was evaluated by determining the level of ATP released by viable cells.
EC50 values were determined with curve fitting analysis method (non linear regression model with a sigmoid dose response, variable Hill slope coefficient) provided by the Prism Software (GraphPad). Results were expressed as average EC50 values (concentration of tested compound that inhibits 50% of the maximum effect for the considered compound).
A general note: In ATP-based viability assays light output follows the ATP content of the culture.

Data set [2] deals with luciferase reporter gene under the control of the partially methylated CMV promoter in KG-1 cell line. Kind of data set: Gene expression (CMV-Luc reactivation) in KG-1 cells. It is filed as cell-based, human. The settings on record: 24 h, induction factor vs DMSO control, mean of 3 experiments ± standard error; for Reactivation fold of luciferase gene reporter, 0.1 μM: compound at 0.1 μM; for Reactivation fold of luciferase gene reporter, 1 μM: compound at 1 μM; for Reactivation fold of luciferase gene reporter, 5 μM: compound at 5 μM; for Reactivation fold of luciferase gene reporter, 10 μM: compound at 10 μM. As for the experimental part:
Gene Expression. (CMV-Luc Reactivation)
KG-1 cell line, stably transfected with the luciferase Firefly (Luc+ from pGL3 by Promega) reporter gene under the control of the CMV promoter (from pEGFP-N1 by Clontech) partially methylated (50%), is seeded at 20,000 cell per well in 96-well plate. After 24 h of incubation in the presence of the compounds or the solvant DMSO, the induction of the promoter is measured by quantification of luciferase with the Brite-lite™ assay system (Perkin Elmer) according to the manufacturer protocol. The luminescence is measured on EnVision™ Multilabel Plate Reader (Perkin Elmer) and the data are expressed in induction factor compared to the DMSO control condition.

For data set [3], the target named is T1, human C-terminal DNMT3A (a.a. 623-908) (Homo sapiens, UniProt Q9Y6K1).
T1 construct: The human C-terminal DNMT3A (a.a. 623-908); made in house
Put plainly: DNMT3A assay (restriction-based fluorescence assay). It is filed as biochemical. The settings on record: for inhibition at 1 µM: compound at 1 μM; for inhibition at 3.2 µM: compound at 3.2 μM. From the text: DNMT3A enzyme inhibition was adapted from the restriction-based fluorescence assay protocol described in Ceccaldi et al. (ChemBioChem 2011, 12, 1337-45). Briefly, a 5′-labelled biotin oligonucleotide is hybridized to its complementary strand labelled with 6-carboxyfluorescein at the 3′-end into a 384 well microplate (black Optiplates; Perkin Elmer) pre-coated with avidin. The duplex contains a unique CpG site overlapping with a restriction site of a methylation sensitive restriction enzyme. The human C-terminal DNMT3A (a.a. 623-908), produced as described in Gros et al. (Nucleic Acids Research 2013 41(19):e185), was added in each well (200 ng/well) and mixed with the chemical compounds at desired concentrations and freshly prepared AdoMet (20 μM final concentration) to start the reaction in a total volume of 50 μL. After 1 hour incubation at 37° C. each well were washed three times with PBS, Tween-20 0.05%, NaCl (500 mM) and three more times with PBST. Specific fluorescent signals were detected with the methylation-sensitive restriction enzyme HpyCH4IV (NEB) as described and measured on a Perkin Elmer Envision detector. The percentage of inhibition is reported. The formula used to calculate the percentage of inhibition is [(X−Y)/X]×100, where X is the signal determined in the absence of the inhibitor and Y is the signal obtained in the presence of the inhibitor. The concentration at which 50% of efficacy of inhibition is observed (EC50) was determined by analysis of a concentration range of the tested compound in triplicates. The non-linear regression fittings with sigmoidal dose-response (variable slope) were performed with GraphPad Prism 4.03 (GraphPad Software).

Data set [4] deals with T2, His-DNMT1 (182 kDa, human) (Homo sapiens, UniProt P26358).
T2 construct: His; made in house
Put plainly: DNMT1 assay (tritiated SAM Flashplate methylation assay). Conditions: for inhibition at 10 µM: compound at 10 μM; for inhibition at 32 µM: compound at 32 μM. It is filed as biochemical. As for the experimental part: His-DNMT1 (182 kDa, human) was cloned, expressed and purified as described in Halby et al. (ChemBioChem 2012, 13, 157-65). The reaction was performed in a 10 μL total reaction volume in low volume NBS™ 384-well microplates (Corning), containing the tested compound (up to 1% DMSO), 1 μM of a SAM/[methyl-^3H] SAM (3 TBq/mmol, PerkinElmer) mix in a ratio of 3-to-1 (isotopic dilution 1*:3), 0.3 μM of biotinylated hemimethylated DNA duplex (5′-GATmCGCmCGATGmCGmCGAATmCGmCGATmCGATGmCGAT-3′ and BIOT-5′-[…]-3′), and 90 nM of DNMT1 in methylation buffer (20 mM HEPES pH 7.2, 1 mM EDTA, 50 mM KCl, 25 μg/mL BSA). The reaction was incubated at 37° C. for 2 hours. 8 μL are then transferred into a streptavidin 96-well scintillant coated Flashplate™ (PerkinElmer) containing 190 μL of 20 μM SAH in 50 mM Tris-HCl pH 7.4. The Flashplate™ was agitated at room temperature for 1 hour, washed three times with 200 μL of 0.05% Tween®-20 in 50 mM Tris-HCl pH 7.4, and read in 200 μL of 50 mM Tris-HCl pH 7.4 on TopCount NXT™ (PerkinElmer).

T1 sequence (Q9Y6K1 627-912): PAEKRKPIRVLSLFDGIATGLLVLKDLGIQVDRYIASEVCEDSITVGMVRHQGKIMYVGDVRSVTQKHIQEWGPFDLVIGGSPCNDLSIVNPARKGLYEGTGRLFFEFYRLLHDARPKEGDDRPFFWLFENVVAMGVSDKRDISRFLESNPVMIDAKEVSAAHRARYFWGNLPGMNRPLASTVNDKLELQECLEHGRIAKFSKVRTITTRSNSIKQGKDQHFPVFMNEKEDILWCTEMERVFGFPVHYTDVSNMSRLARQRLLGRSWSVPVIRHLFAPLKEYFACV
T2 sequence (P26358 whole entry): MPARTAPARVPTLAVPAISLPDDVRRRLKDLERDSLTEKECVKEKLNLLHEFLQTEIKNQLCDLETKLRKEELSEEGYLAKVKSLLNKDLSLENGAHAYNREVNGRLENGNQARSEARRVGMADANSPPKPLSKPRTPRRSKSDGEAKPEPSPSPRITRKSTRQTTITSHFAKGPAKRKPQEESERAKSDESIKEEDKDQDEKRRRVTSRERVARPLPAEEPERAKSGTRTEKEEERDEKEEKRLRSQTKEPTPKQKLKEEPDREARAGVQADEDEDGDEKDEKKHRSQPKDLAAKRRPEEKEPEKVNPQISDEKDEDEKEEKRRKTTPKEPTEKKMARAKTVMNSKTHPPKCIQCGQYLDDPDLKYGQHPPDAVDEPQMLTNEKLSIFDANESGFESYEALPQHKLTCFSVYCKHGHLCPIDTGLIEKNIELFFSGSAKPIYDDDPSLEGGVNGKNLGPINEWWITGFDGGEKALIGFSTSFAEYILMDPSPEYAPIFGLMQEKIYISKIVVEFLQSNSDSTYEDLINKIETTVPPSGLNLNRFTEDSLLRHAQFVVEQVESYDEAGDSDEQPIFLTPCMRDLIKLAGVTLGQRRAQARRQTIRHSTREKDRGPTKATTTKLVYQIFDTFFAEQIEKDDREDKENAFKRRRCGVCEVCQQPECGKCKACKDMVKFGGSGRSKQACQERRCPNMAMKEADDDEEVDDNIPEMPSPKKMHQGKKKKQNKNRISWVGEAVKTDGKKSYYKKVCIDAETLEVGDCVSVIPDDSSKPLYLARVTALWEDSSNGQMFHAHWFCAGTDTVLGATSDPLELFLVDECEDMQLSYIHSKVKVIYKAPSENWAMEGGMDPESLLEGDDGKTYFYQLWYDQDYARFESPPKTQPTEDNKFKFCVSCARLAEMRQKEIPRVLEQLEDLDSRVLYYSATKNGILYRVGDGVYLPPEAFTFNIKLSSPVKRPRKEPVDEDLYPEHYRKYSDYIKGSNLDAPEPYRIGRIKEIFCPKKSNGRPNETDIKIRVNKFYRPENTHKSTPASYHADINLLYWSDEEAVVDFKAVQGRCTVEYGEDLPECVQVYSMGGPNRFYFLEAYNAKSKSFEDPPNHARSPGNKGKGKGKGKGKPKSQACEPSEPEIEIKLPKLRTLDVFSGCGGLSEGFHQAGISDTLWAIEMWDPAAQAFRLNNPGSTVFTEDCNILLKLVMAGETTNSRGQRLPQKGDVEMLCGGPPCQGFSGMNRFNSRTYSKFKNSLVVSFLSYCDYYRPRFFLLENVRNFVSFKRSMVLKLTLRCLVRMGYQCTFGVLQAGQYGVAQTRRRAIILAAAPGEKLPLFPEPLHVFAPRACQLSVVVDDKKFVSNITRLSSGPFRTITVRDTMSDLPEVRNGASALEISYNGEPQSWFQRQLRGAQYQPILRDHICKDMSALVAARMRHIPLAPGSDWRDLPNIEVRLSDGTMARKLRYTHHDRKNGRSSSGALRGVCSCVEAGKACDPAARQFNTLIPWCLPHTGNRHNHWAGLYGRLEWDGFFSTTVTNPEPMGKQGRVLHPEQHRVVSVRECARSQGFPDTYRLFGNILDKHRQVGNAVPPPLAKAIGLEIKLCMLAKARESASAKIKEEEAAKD

By EC50 is commonly meant the concentration needed to bring the measured effect to its halfway point. Read a low EC50 as a more potent agent. As usually defined, the melting point is the temperature, or range, at which the solid turns liquid. Compound `COc1cc2c(NC3CCN(Cc4ccccc4)CC3)nc(N3CCN(c4ccccc4)CC3)nc2cc1OCC1CCN(CCNc2ccnc3ccccc23)CC1` [E, N-(1-benzylpiperidin-4-yl)-6-methoxy-2-(4-phenylpiperazin-1-yl)-7-((1-(2-(quinolin-4-ylamino)ethyl)piperidin-4-yl)methoxy)quinazolin-4-amine] returned a melting point of 124 to 126 °C. Further, the 50% effective concentration (EC50) in data set [1] (96 h, treatment on days 1-3, viability on day 4 (ATPLite)) was 2.5 µM. Besides, in data set [1], the inhibition at 0.1 µM is -2.3%, the inhibition at 1 µM came out at 15.4%, the inhibition at 5 µM is 92.1% and the inhibition at 10 µM came out at 99.8%. For the same compound, in data set [2], the “Reactivation fold of luciferase gene reporter, 0.1 μM” value is 1.1 ± 0.0 fold; the “Reactivation fold of luciferase gene reporter, 1 μM” value worked out at 3.5 ± 0.0 fold; the “Reactivation fold of luciferase gene reporter, 5 μM” value came out at 1.3 ± 1.2 fold; the “Reactivation fold of luciferase gene reporter, 10 μM” value is recorded as 0.0 ± 0.0 fold. For the same compound, in data set [3], the response was half-maximal at 0.6 µM (EC50), the inhibition at 1 µM stood at 74% and the inhibition at 3.2 µM turned out to be 100%. Moreover, in data set [4], a half-maximal response (EC50) required 10 µM, the inhibition at 10 µM came to 59% and the inhibition at 32 µM stood at 100%.
`COc1cc2c(NCCNc3cccc4ccccc34)nc(N3CCN(c4ccccc4)CC3)nc2cc1OCC1CCN(CCNc2ccnc3ccccc23)CC1` [F, N^1-(6-methoxy-2-(4-phenylpiperazin-1-yl)-7-((1-(2-(quinolin-4-ylamino)ethyl)piperidin-4-yl)methoxy)quinazolin-4-yl)-N^2-(naphtalen-1-yl)ethane-1,2-diamine] returned a melting point of 180 to 181 °C. In data set [1], the inhibition at 0.1 µM is 2%, the inhibition at 1 µM was found to be 31.9%, the inhibition at 5 µM amounted to 99.6% and the inhibition at 10 µM amounted to 99.9%. In addition, in data set [2], the “Reactivation fold of luciferase gene reporter, 0.1 μM” value is recorded as 1.1 ± 0.0 fold; the “Reactivation fold of luciferase gene reporter, 1 μM” value stood at 4.4 ± 0.4 fold; the “Reactivation fold of luciferase gene reporter, 5 μM” value came out at 1.0 ± 0.8 fold; the “Reactivation fold of luciferase gene reporter, 10 μM” value came out at 0.0 ± 0.0 fold. Further, in data set [3], the inhibition at 1 µM turned out to be 75% and the inhibition at 3.2 µM worked out at 84%. For the same compound, in data set [4], it took 11.7 µM to reach a half-maximal effect (EC50), the inhibition at 10 µM is 45% and the inhibition at 32 µM amounted to 93%.

Values taken from US10450299B2, “Substituted quinazoline derivatives as DNA methyltransferase inhibitors” (Pierre Fabre Medicament, priority 2015, dated 2019).
